In the supplement of paper PMC7661543:
± gives the standard deviation of the averaged measurements.

How the values were obtained:
Test in all cases: relative cell number vs DMSO control (72 h) (% of DMSO); higher = less growth inhibition (more cells)
Settings in all cases: sgRNA knockout: sgNT
BT-20 = system: BT-20
Method in brief: (§1)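 After 6 days of induction with 100 ng/mL doxycycline, pooled Cas9-engineered breast cancer lines were plated at 5000 cells per 96-well and dosed in duplicate for 72 h at four 10-fold concentrations (10 nM–10 μM or 1 nM–1 μM). Cell numbers came from sequenced sgRNA and cell-line barcode reads, interpolated against 293T spike-in standard curves made for each sample. Relative cell number is reported against the median of DMSO-treated samples as a percent.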

HCC-38 = system: HCC-38
Method in brief: as §1

MDA-MB-231 = system: MDA-MB-231
Method in brief: as §1

SKBR3 = system: SKBR3
Method in brief: as §1

ZR-75-1 = system: ZR-75-1
Method in brief: as §1

| SMILES | relative cell number (BT-20; 10 nM) | relative cell number (BT-20; 100 nM) | relative cell number (BT-20; 1000 nM) | relative cell number (BT-20; 10000 nM) | relative cell number (HCC-38; 10 nM) | relative cell number (HCC-38; 100 nM) | relative cell number (HCC-38; 1000 nM) | relative cell number (HCC-38; 10000 nM) | relative cell number (MDA-MB-231; 10 nM) | relative cell number (MDA-MB-231; 100 nM) | relative cell number (MDA-MB-231; 1000 nM) | relative cell number (MDA-MB-231; 10000 nM) | relative cell number (SKBR3; 10 nM) | relative cell number (SKBR3; 100 nM) | relative cell number (SKBR3; 1000 nM) | relative cell number (SKBR3; 10000 nM) | relative cell number (ZR-75-1; 10 nM) | relative cell number (ZR-75-1; 100 nM) | relative cell number (ZR-75-1; 1000 nM) | relative cell number (ZR-75-1; 10000 nM) | relative cell number (BT-20; 1 nM) | relative cell number (HCC-38; 1 nM) | relative cell number (MDA-MB-231; 1 nM) | relative cell number (SKBR3; 1 nM) | relative cell number (ZR-75-1; 1 nM) |
| --- | --- | --- | --- | --- | --- | --- | --- | --- | --- | --- | --- | --- | --- | --- | --- | --- | --- | --- | --- | --- | --- | --- | --- | --- | --- |
| COc1cc2ncnc(Nc3ccc(F)c(Cl)c3)c2cc1OCCCN1CCOCC1 [Gefitinib] | 95.4 ± 5.2 | 80.8 ± 9.2 | 86.3 ± 16 | 62.8 ± 13 | 84.4 ± 11 | 105.03 ± 0.0072 | 105 ± 18 | 92.41 ± 0.25 | 83.3 ± 31 | 76.2 ± 23 | 81.2 ± 19 | 108 ± 12 | 78.7 ± 18 | 95.3 ± 31 | 48.5 ± 17 | 36.6 ± 7.8 | 101 ± 13 | 116 ± 49 | 51.61 ± 0.097 | 44.4 ± 13 |  |  |  |  |  |
| CN(C)/N=N/c1[nH]cnc1C(N)=O [Dacarbazine] | 73.1 ± 11 | 96.3 ± 16 | 108 ± 13 | 88.5 ± 26 | 96.4 ± 9.5 | 85 ± 22 | 90.4 ± 13 | 96.1 ± 20 | 95 ± 23 | 132 ± 22 | 125 ± 38 | 69.2 ± 6.3 | 89.1 ± 21 | 91.8 ± 8.6 | 86.9 ± 3.4 | 106 ± 30 | 89.3 ± 32 | 87.7 ± 18 | 93.4 ± 33 | 94.9 ± 2.4 |  |  |  |  |  |
| CN1CCN(CCOc2cc(OC3CCOCC3)c3c(Nc4c(Cl)ccc5c4OCO5)ncnc3c2)CC1 [Saracatinib] | 90.5 ± 32 | 85.8 ± 15 | 73.7 ± 11 | 48.3 ± 18 | 80.8 ± 18 | 87 ± 10 | 78.8 ± 13 | 70.5 ± 12 | 84.1 ± 37 | 70.3 ± 5.9 | 64.1 ± 5.6 | 33.9 ± 17 | 85.4 ± 45 | 95.9 ± 16 | 62.9 ± 18 | 32.6 ± 8 | 77.5 ± 1.3 | 97.6 ± 53 | 92.6 ± 28 | 48.2 ± 22 |  |  |  |  |  |
| CCc1c2c(nc3ccc(O)cc13)-c1cc3c(c(=O)n1C2)COC(=O)[C@]3(O)CC [SN38] | 77.6 ± 9.2 | 45.3 ± 2.9 | 31.9 ± 5.3 |  | 35.7 ± 5.1 | 19.6 ± 4.8 | 14.5 ± 6 |  | 38 ± 19 | 21.8 ± 3.3 | 19.5 ± 2 |  | 35 ± 16 | 23.2 ± 7.1 | 25 ± 0.91 |  | 39.7 ± 5.6 | 36.2 ± 4.4 | 25.4 ± 4.1 |  | 90.7 ± 2 | 97.2 ± 7.5 | 111 ± 8.8 | 67.7 ± 30 | 57.1 ± 2.3 |
| C[C@]12CC[C@H](O)CC1=CC[C@@H]1[C@@H]2CC[C@]2(C)C(c3cccnc3)=CC[C@@H]12 [Abiraterone] | 115 ± 6.5 | 118 ± 20 | 116 ± 3.4 |  | 107 ± 4.5 | 104 ± 5.2 | 116 ± 16 |  | 115 ± 3.5 | 99.4 ± 5.8 | 153 ± 19 |  | 118 ± 15 | 114 ± 42 | 114 ± 10 |  | 115 ± 34 | 105 ± 18 | 90.5 ± 55 |  | 109 ± 10 | 109 ± 2.1 | 127 ± 2.9 | 139 ± 37 | 101 ± 16 |
| CC[C@]1(O)C[C@H]2CN(CCc3c([nH]c4ccccc34)[C@@](C(=O)OC)(c3cc4c(cc3OC)N(C=O)[C@H]3[C@@](O)(C(=O)OC)[C@H](OC(C)=O)[C@]5(CC)C=CCN6CC[C@]43[C@@H]65)C2)C1 [Vincristine] | 34.7 ± 4.6 | 22.5 ± 6.4 | 28.17 ± 0.087 | 34.5 ± 1.1 | 23.2 ± 4 | 22.5 ± 2.4 | 21.8 ± 2.9 | 21.1 ± 1.5 | 30.7 ± 3.3 | 14.4 ± 2.7 | 9.81 ± 3.5 | 8.55 ± 3.1 | 5.25 ± 0.24 | 3.5 ± 2.5 | 8.88 ± 0.92 | 6.97 ± 4.4 | 36.6 ± 5.9 | 22.3 ± 1.7 | 9.69 ± 0.85 | 17.1 ± 4.5 |  |  |  |  |  |
| C[C@@H](Oc1cc(-n2cnc3ccc(CN4CCN(C)CC4)cc32)sc1C(N)=O)c1ccccc1C(F)(F)F | 48.1 ± 11 | 26.1 ± 17 | 31.8 ± 0.68 | 23.3 ± 2.4 | 23.8 ± 3.1 | 16.7 ± 4.5 | 17.3 ± 0.54 | 17.6 ± 4.5 | 40.66 ± 0.27 | 19.5 ± 2.2 | 12.5 ± 0.32 | 8.66 ± 5.4 | 13.6 ± 4.1 | 13.5 ± 1.8 | 13.4 ± 4.3 | 23.5 ± 4.7 | 112 ± 14 | 22.1 ± 8.8 | 27.7 ± 3.9 | 29.7 ± 12 |  |  |  |  |  |
| Oc1cccc(-c2nc(N3CCOCC3)c3oc4ncccc4c3n2)c1 [PI103] | 120 ± 44 | 124 ± 37 | 68.7 ± 11 | 49.7 ± 11 | 118 ± 1.5 | 111 ± 1.1 | 85.3 ± 4.5 | 31.4 ± 2.4 | 143 ± 15 | 126 ± 41 | 118 ± 15 | 37.3 ± 11 | 145 ± 47 | 134 ± 2.6 | 62.6 ± 31 | 33.1 ± 2.4 | 121 ± 13 | 129 ± 16 | 58 ± 21 | 18.9 ± 2.2 |  |  |  |  |  |
| COc1cc2nccc(Oc3ccc(NC(=O)Nc4cc(C)on4)c(Cl)c3)c2cc1OC [Tivozanib] | 87.3 ± 13 | 75.4 ± 7 | 101 ± 8.1 | 79.4 ± 11 | 94.3 ± 6.2 | 94.5 ± 10 | 98.6 ± 11 | 48.4 ± 2.2 | 101 ± 2.9 | 105 ± 6.9 | 94.7 ± 14 | 63.3 ± 3.9 | 103 ± 5.7 | 97.7 ± 19 | 96.2 ± 3.3 | 62.3 ± 7 | 83.6 ± 67 | 101 ± 13 | 115 ± 4.3 | 33.8 ± 12 |  |  |  |  |  |
| C[C@@H](Nc1cc(F)cc(F)c1)c1cc(C(=O)N(C)C)cc2c(=O)cc(N3CCOCC3)oc12 [AZD8186] | 103 ± 9.9 | 117 ± 3.5 | 107 ± 23 | 98.3 ± 1.2 | 97.9 ± 24 | 105 ± 19 | 86.8 ± 7.5 | 79.5 ± 7.5 | 109 ± 3.1 | 134 ± 21 | 130 ± 80 | 83.4 ± 28 | 88.2 ± 0.97 | 103 ± 18 | 94.2 ± 6.8 | 59.6 ± 10 | 91.2 ± 19 | 103 ± 1.3 | 66.4 ± 4 | 49.1 ± 22 |  |  |  |  |  |
| O=C(O)CCCc1ccc(N(CCCl)CCCl)cc1 [Chlorambucil] | 100 ± 3 | 72.6 ± 16 | 93.2 ± 18 | 81.2 ± 22 | 90.4 ± 5.5 | 98.6 ± 12 | 96 ± 3.8 | 67.5 ± 2.6 | 99.2 ± 7.3 | 94.9 ± 9.4 | 91 ± 18 | 63.5 ± 24 | 107 ± 1.5 | 74.5 ± 4.3 | 82.17 ± 0.55 | 64.2 ± 2.1 | 81.3 ± 21 | 83.3 ± 26 | 78 ± 34 | 86.17 ± 0.75 |  |  |  |  |  |
| CC(=O)Nc1nc(C)c(-c2ccc(Cl)c(S(=O)(=O)NCCO)c2)s1 [PIK93] | 106 ± 8.5 | 104 ± 2.3 | 98.71 ± 0.17 | 74 ± 3.9 | 115 ± 21 | 118 ± 22 | 80.4 ± 7.5 | 62.7 ± 7.3 | 84.5 ± 40 | 98.2 ± 31 | 88.6 ± 11 | 37.5 ± 1.5 | 112 ± 59 | 66.5 ± 30 | 94.4 ± 41 | 51.9 ± 25 | 128 ± 19 | 99.2 ± 33 | 61.1 ± 14 | 63.8 ± 24 |  |  |  |  |  |
